Measured values: ChEMBL document CHEMBL3046289, “Synthesis and in vitro antimicrobial activity of some newer quinazolinonesulfonamide linked hybrid heterocyclic entities derived from glycine” (2013)
≈ marks a conversion by molar mass, not a printed value.

Columns and labels:
Type in all cases: functional
Escherichia coli = experiment: Antibacterial activity against Escherichia coli MTCC 443 assessed as growth inhibition after 24 hr by broth microdilution method; conditions: MTCC 443, 24 h
Pseudomonas aeruginosa = experiment: Antibacterial activity against Pseudomonas aeruginosa MTCC 1688 assessed as growth inhibition after 24 hr by broth microdilution method; conditions: MTCC 1688, 24 h
Bacillus cereus = experiment: Antibacterial activity against Bacillus cereus MTCC 1305 assessed as growth inhibition after 24 hr by broth microdilution method; conditions: MTCC 1305, 24 h
Aspergillus niger = experiment: Antifungal activity against Aspergillus niger MTCC 282 assessed as growth inhibition after 48 hr by broth microdilution method; conditions: MTCC 282, 48 h
Staphylococcus aureus = experiment: Antibacterial activity against Staphylococcus aureus MTCC 2940 assessed as growth inhibition after 24 hr by broth microdilution method; conditions: MTCC 2940, 24 h
Candida albicans = experiment: Antifungal activity against Candida albicans MTCC 227 assessed as growth inhibition after 48 hr by broth microdilution method; conditions: MTCC 227, 48 h
Klebsiella pneumoniae = experiment: Antibacterial activity against Klebsiella pneumoniae MTCC 139 assessed as growth inhibition after 24 hr by broth microdilution method; conditions: MTCC 139, 24 h

| SMILES | MIC (Escherichia coli) | MIC (Pseudomonas aeruginosa) | MIC (Bacillus cereus) | MIC (Aspergillus niger) | MIC (Staphylococcus aureus) | MIC (Candida albicans) | MIC (Klebsiella pneumoniae) |
| --- | --- | --- | --- | --- | --- | --- | --- |
| Nc1ccc(S(=O)(=O)NCc2nc3ccccc3c(=O)n2-c2ccc(F)cc2)cc1 | 55 µg/mL (≈ 130 µM) | 65 µg/mL (≈ 153 µM) | 55 µg/mL (≈ 130 µM) | 45 µg/mL (≈ 106 µM) | 60 µg/mL (≈ 141 µM) | 60 µg/mL (≈ 141 µM) | 85 µg/mL (≈ 200 µM) |
| COc1ccc(-n2c(CNS(=O)(=O)c3ccc(NC(C)=O)cc3)nc3ccccc3c2=O)cc1 | 50 µg/mL (≈ 104 µM) | 90 µg/mL (≈ 188 µM) | 65 µg/mL (≈ 136 µM) | 40 µg/mL (≈ 83.6 µM) | 55 µg/mL (≈ 115 µM) | 50 µg/mL (≈ 104 µM) | 100 µg/mL (≈ 209 µM) |
| Nc1ccc(S(=O)(=O)NCc2nc3ccccc3c(=O)n2-c2cccc(Br)c2)cc1 | 50 µg/mL (≈ 103 µM) | 55 µg/mL (≈ 113 µM) | 60 µg/mL (≈ 124 µM) | 40 µg/mL (≈ 82.4 µM) | 50 µg/mL (≈ 103 µM) | 45 µg/mL (≈ 92.7 µM) | 75 µg/mL (≈ 155 µM) |
| Nc1ccc(S(=O)(=O)NCc2nc3ccccc3c(=O)n2-c2ccccc2Cl)cc1 | 55 µg/mL (≈ 125 µM) | 60 µg/mL (≈ 136 µM) | 90 µg/mL (≈ 204 µM) | 50 µg/mL (≈ 113 µM) | 60 µg/mL (≈ 136 µM) | 60 µg/mL (≈ 136 µM) | 90 µg/mL (≈ 204 µM) |
| Nc1ccc(S(=O)(=O)NCc2nc3ccccc3c(=O)n2-c2ccccc2F)cc1 | 65 µg/mL (≈ 153 µM) | 70 µg/mL (≈ 165 µM) | 90 µg/mL (≈ 212 µM) | 55 µg/mL (≈ 130 µM) | 65 µg/mL (≈ 153 µM) | 65 µg/mL (≈ 153 µM) | 95 µg/mL (≈ 224 µM) |
| CC(=O)Nc1ccc(S(=O)(=O)NCc2nc3ccccc3c(=O)n2-c2ccc(Cl)cc2)cc1 | 60 µg/mL (≈ 124 µM) | 65 µg/mL (≈ 135 µM) | 90 µg/mL (≈ 186 µM) | 55 µg/mL (≈ 114 µM) | 60 µg/mL (≈ 124 µM) | 65 µg/mL (≈ 135 µM) | 85 µg/mL (≈ 176 µM) |
| CC(=O)Nc1ccc(S(=O)(=O)NCc2nc3ccccc3c(=O)n2-c2ccccc2[N+](=O)[O-])cc1 | 75 µg/mL (≈ 152 µM) | 100 µg/mL (≈ 203 µM) | 90 µg/mL (≈ 182 µM) | 65 µg/mL (≈ 132 µM) | 85 µg/mL (≈ 172 µM) | 80 µg/mL (≈ 162 µM) | 115 µg/mL (≈ 233 µM) |
| Cc1ccccc1-n1c(CNS(=O)(=O)c2ccc(N)cc2)nc2ccccc2c1=O | 70 µg/mL (≈ 166 µM) | 80 µg/mL (≈ 190 µM) | 105 µg/mL (≈ 250 µM) | 90 µg/mL (≈ 214 µM) | 90 µg/mL (≈ 214 µM) | 100 µg/mL (≈ 238 µM) | 100 µg/mL (≈ 238 µM) |
| CC(=O)Nc1ccc(S(=O)(=O)NCc2nc3ccccc3c(=O)n2-c2ccc(C)cc2)cc1 | 85 µg/mL (≈ 184 µM) | 105 µg/mL (≈ 227 µM) | 105 µg/mL (≈ 227 µM) | 70 µg/mL (≈ 151 µM) | 95 µg/mL (≈ 205 µM) | 85 µg/mL (≈ 184 µM) | 115 µg/mL (≈ 249 µM) |
| Cc1ccccc1-n1c(C)nc2ccccc2c1=O [METHAQUALONE] | 75 µg/mL (≈ 300 µM) | 100 µg/mL (≈ 400 µM) | 140 µg/mL (≈ 559 µM) | 90 µg/mL (≈ 360 µM) | 125 µg/mL (≈ 499 µM) | 125 µg/mL (≈ 499 µM) | 115 µg/mL (≈ 459 µM) |
| Nc1ccc(S(=O)(=O)NCc2nc3ccccc3c(=O)n2-c2ccc([N+](=O)[O-])cc2)cc1 | 55 µg/mL (≈ 122 µM) | 60 µg/mL (≈ 133 µM) | 75 µg/mL (≈ 166 µM) | 45 µg/mL (≈ 99.7 µM) | 65 µg/mL (≈ 144 µM) | 55 µg/mL (≈ 122 µM) | 75 µg/mL (≈ 166 µM) |
| COc1cccc(-n2c(CNS(=O)(=O)c3ccc(NC(C)=O)cc3)nc3ccccc3c2=O)c1 | 75 µg/mL (≈ 157 µM) | 100 µg/mL (≈ 209 µM) | 90 µg/mL (≈ 188 µM) | 65 µg/mL (≈ 136 µM) | 85 µg/mL (≈ 178 µM) | 70 µg/mL (≈ 146 µM) | 110 µg/mL (≈ 230 µM) |
| Nc1ccc(S(=O)(=O)NCc2nc3ccccc3c(=O)n2-c2ccc(Cl)cc2)cc1 | 45 µg/mL (≈ 102 µM) | 50 µg/mL (≈ 113 µM) | 55 µg/mL (≈ 125 µM) | 40 µg/mL (≈ 90.7 µM) | 45 µg/mL (≈ 102 µM) | 45 µg/mL (≈ 102 µM) | 75 µg/mL (≈ 170 µM) |
